Assay: Oil recovery from formation core by brine displacement followed by DMS displacement
Settings: after waterflooding with a brine solution
Experimental: Incremental recovery of oil from a formation core using an oil recovery formulation consisting of dimethyl sulfide following oil recovery from the core by water-flooding was measured to evaluate the effectiveness of DMS as a tertiary oil recovery agent.
Two 5.02 cm long Berea sandstone cores with a core diameter of 3.78 cm and a permeability between 925 and 1325 mD were saturated with a brine having a composition as set forth in Table 7.
After saturation of the cores with brine, the brine was displaced by a Middle Eastern Asphaltic crude oil having the characteristics as set forth above in Table 3 to saturate the cores with oil.
Oil was recovered from each oil saturated core by the addition of brine to the core under pressure and by subsequent addition of DMS to the core under pressure. Each core was treated as follows to determine the amount of oil recovered from the core by addition of brine followed by addition of DMS. Oil was initially displaced from the core by addition of brine to the core under pressure. A confining pressure of 1 MPa was applied to the core during addition of the brine, and the flow rate of brine to the core was set at 0.05 ml/min. The core was maintained at a temperature of 50° C. during displacement of oil from the core with brine. […]

## CSC [Dimethyl Sulfide, dimethyl sulfide]
  Oil recovered, of the oil remaining in the core after the waterflood: approximately 60%

Source: US20140000886A1, “PETROLEUM RECOVERY PROCESS AND SYSTEM” (Shell Oil Company, priority 2012, published 2014)
